# Reference: ChEMBL document CHEMBL5523766 (J Med Chem, 2024)
# Columns and labels:
# ATR/ATRIP = ATR/ATRIP (Homo sapiens, UniProt Q13535); experiment: Inhibition of ATR/ATRIP (unknown origin) using 5-FAM-AK-17 as substrate preincubated with compound for 10 mins followed by ATP addition and measured after 240 mins by mobility shift assay; format: protein-complex assay
# Granta-519 [1] = experiment: Induction of cell cycle arrest in human Granta-519 cells assessed as accumulation of cells at S phase at 2000 nM incubated for 24 hrs by propidium iodide staining based flow cytometry (reference value: 44.81 %); format: functional
# NCI-H446 = experiment: Antiproliferative activity against human NCI-H446 cells assessed as inhibition of cell growth incubated for 72 hrs by MTS assay; format: functional, cell-based; settings: NCI-H446, 72 h
# HCT-116 = experiment: Antiproliferative activity against human HCT-116 cells assessed as inhibition of cell growth incubated for 72 hrs by MTS assay; format: functional, cell-based; settings: HCT-116, 72 h
# CAPAN-1 = experiment: Antiproliferative activity against human CAPAN-1 cells assessed as inhibition of cell growth incubated for 72 hrs by MTS assay; format: functional, cell-based; settings: CAPAN-1, 72 h
# Granta-519 [2] = experiment: Antiproliferative activity against human Granta-519 cells assessed as inhibition of cell growth incubated for 72 hrs by MTS assay; format: functional, cell-based; settings: Granta-519, 72 h
# Granta-519 [3] = experiment: Induction of cell cycle arrest in human Granta-519 cells assessed as accumulation of cells at G1 phase at 2000 nM incubated for 24 hrs by propidium iodide staining based flow cytometry (reference value: 45.83 %); format: functional
# LoVo = experiment: Antiproliferative activity against human LoVo cells assessed as inhibition of cell growth incubated for 72 hrs by MTS assay; format: functional, cell-based
# Granta-519 [4] = experiment: Induction of apoptosis in human Granta-519 cells assessed as necrotic cells at 2000 nM incubated for 48 hrs by Annexin-V-FITC/propidium iodide staining based flow cytometry (reference value: 0.429 %); format: functional
# Granta-519 [5] = experiment: Induction of apoptosis in human Granta-519 cells assessed as viable cells at 2000 nM incubated for 48 hrs by Annexin-V-FITC/propidium iodide staining based flow cytometry (reference value: 92.7 %); format: functional; settings: read-out: Activity
# Granta-519 [6] = experiment: Induction of apoptosis in human Granta-519 cells assessed as late apoptotic cells at 2000 nM incubated for 48 hrs by Annexin-V-FITC/propidium iodide staining based flow cytometry (reference value: 3.07 %); format: functional
# SUD4 = experiment: Antiproliferative activity against human SU-DHL-4 cells assessed as inhibition of cell growth incubated for 72 hrs by MTS assay; format: functional, cell-based; settings: SU-DHL-4, 72 h
# Granta-519 [7] = experiment: Induction of apoptosis in human Granta-519 cells assessed as early apoptotic cells at 2000 nM incubated for 48 hrs by Annexin-V-FITC/propidium iodide staining based flow cytometry (reference value: 3.75 %); format: functional
# DLD-1 = experiment: Antiproliferative activity against human DLD-1 cells assessed as inhibition of cell growth incubated for 72 hrs by MTS assay; format: functional, cell-based; settings: DLD-1, 72 h
# PC-3 = experiment: Antiproliferative activity against human PC-3 cells assessed as inhibition of cell growth incubated for 72 hrs by MTS assay; format: functional, cell-based; settings: PC-3, 72 h
# A2780 = experiment: Antiproliferative activity against human A2780 cells assessed as inhibition of cell growth incubated for 72 hrs by MTS assay; format: functional, cell-based; settings: A2780, 72 h
# OCI-Ly10 = experiment: Antiproliferative activity against human OCI-Ly10 cells assessed as inhibition of cell growth incubated for 72 hrs by MTS assay; format: functional, cell-based; settings: OCI-Ly10, 72 h
# HT-29 = experiment: Antiproliferative activity against human HT-29 cells assessed as inhibition of cell growth incubated for 72 hrs by MTS assay; format: functional, cell-based; settings: HT-29, 72 h
# ATR/ATRIP, sequence (Q13535 whole entry): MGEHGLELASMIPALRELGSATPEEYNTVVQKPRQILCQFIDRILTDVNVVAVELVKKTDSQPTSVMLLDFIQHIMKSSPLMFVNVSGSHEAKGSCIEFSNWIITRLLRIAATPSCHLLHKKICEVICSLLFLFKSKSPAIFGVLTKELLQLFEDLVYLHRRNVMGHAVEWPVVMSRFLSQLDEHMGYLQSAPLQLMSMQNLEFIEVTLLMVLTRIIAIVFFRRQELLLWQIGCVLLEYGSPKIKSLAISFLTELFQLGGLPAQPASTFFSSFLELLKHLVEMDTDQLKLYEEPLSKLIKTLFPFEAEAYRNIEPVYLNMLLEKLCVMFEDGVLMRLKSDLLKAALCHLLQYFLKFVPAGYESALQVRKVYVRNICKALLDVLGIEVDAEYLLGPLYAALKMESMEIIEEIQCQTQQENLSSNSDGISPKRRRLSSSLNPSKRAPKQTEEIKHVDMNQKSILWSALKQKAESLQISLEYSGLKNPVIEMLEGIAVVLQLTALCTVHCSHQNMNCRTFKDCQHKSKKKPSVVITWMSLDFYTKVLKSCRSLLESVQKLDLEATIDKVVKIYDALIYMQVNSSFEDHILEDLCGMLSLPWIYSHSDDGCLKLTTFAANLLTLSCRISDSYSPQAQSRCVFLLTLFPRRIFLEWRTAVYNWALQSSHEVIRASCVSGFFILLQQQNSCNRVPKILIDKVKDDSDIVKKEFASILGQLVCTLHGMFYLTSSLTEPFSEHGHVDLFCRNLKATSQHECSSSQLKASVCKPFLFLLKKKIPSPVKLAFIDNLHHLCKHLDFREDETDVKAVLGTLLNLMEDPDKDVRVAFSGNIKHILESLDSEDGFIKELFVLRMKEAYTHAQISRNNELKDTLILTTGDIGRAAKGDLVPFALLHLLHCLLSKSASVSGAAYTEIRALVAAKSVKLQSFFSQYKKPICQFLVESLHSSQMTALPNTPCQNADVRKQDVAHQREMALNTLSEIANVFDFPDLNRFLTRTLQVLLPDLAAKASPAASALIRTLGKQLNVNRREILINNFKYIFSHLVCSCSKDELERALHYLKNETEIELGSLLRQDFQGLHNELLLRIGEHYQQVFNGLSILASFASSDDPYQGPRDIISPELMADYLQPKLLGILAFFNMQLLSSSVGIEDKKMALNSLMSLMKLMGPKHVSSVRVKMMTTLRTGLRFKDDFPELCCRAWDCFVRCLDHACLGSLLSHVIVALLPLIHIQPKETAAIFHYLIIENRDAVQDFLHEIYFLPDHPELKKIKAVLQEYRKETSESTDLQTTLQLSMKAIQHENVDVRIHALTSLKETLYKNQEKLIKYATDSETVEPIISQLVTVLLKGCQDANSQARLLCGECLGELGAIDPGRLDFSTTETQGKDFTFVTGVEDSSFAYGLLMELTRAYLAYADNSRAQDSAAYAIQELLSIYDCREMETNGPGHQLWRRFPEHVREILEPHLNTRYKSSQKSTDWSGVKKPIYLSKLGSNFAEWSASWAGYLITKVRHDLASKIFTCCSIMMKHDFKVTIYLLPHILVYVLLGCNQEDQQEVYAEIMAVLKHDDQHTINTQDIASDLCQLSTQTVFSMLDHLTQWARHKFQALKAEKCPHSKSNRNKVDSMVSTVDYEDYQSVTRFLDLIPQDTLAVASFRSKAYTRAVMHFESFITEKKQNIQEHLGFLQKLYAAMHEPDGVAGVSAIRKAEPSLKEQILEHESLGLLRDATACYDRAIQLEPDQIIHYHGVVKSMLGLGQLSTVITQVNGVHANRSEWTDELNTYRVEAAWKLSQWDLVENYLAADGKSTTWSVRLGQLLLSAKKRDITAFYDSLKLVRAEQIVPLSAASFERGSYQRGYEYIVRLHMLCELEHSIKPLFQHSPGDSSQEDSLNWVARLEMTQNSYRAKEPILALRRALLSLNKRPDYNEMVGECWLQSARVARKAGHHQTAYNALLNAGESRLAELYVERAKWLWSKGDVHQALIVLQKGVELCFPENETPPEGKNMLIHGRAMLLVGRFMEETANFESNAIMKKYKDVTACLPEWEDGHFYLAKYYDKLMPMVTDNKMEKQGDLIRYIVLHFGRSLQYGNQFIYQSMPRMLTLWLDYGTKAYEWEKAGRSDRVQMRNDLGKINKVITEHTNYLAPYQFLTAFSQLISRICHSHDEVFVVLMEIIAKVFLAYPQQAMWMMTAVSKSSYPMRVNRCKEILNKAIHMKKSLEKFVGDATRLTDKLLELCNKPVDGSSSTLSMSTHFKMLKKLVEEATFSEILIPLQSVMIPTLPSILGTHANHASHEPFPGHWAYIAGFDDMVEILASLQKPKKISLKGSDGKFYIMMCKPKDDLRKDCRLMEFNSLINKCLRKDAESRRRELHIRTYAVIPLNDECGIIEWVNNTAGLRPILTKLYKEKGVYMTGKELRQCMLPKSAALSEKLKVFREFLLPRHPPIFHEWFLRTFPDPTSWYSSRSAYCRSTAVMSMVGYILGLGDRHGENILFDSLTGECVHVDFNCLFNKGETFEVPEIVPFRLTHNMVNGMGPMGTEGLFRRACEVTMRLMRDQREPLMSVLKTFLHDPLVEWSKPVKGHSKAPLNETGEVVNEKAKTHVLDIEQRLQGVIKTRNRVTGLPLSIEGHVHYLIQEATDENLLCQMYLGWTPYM
# ATR/ATRIP, sequence (Q8WXE1 whole entry, further chain): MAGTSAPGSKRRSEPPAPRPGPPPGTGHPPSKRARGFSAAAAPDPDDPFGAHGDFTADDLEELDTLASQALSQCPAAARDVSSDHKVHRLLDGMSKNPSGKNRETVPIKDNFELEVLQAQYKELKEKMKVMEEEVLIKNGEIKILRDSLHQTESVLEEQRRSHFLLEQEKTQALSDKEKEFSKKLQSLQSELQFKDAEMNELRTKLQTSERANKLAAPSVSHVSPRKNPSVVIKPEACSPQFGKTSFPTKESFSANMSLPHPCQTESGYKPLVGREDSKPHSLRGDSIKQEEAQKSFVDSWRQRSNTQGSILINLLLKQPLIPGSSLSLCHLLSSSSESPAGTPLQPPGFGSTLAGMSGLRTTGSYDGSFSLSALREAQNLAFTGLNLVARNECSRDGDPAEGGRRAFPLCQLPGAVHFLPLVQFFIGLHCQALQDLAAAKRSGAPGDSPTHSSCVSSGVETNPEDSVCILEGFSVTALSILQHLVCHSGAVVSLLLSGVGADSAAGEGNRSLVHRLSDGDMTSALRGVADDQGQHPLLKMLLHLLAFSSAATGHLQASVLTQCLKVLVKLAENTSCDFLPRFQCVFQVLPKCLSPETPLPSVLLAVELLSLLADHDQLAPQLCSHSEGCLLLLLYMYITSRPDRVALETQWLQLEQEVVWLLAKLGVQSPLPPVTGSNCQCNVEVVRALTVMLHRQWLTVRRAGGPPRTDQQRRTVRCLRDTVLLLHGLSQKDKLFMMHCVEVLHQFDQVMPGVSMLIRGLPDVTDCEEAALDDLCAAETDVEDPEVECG
Compound,IC50 (ATR/ATRIP) [nM],further results
Cc1ccc(S(=O)(=O)n2ccc3c(N4CCOC[C@H]4C)nc(-c4cccc5[nH]ccc45)nc32)cc1,3670,
C[C@@H]1COCCN1c1nc(-c2cccc3occc23)nc2c1ccn2S(C)(=O)=O,684,
C[C@@H]1COCCN1c1cc(C2(S(=O)(=O)N(C)C)CC2)nc(-c2cccc3[nH]ccc23)n1,746,
C[C@@H]1COCCN1c1cc(N2CCCS2(=O)=O)nc(-c2cccc3[nH]ccc23)n1,43.5,
C[C@@H]1COCCN1c1nc(-c2cnc3ccccc3c2)nc2c1ccn2S(C)(=O)=O,630,
C[C@@H]1COCCN1c1nc(-c2ccc3[nH]cnc3c2)nc2c1ccn2S(C)(=O)=O,245,
C[C@@H]1COCCN1c1nc(-c2cccc3[nH]ccc23)nc2c1ccn2S(=O)(=O)c1cccs1,84.9,
C[C@@H]1COCCN1c1nc(-c2ccc3nccn3c2)nc2c1ccn2S(C)(=O)=O,625,
C[C@@H]1COCCN1c1nc(-c2cncc3ccccc23)nc2c1ccn2S(C)(=O)=O,46.9,
C[C@@H]1COCCN1c1nc(-c2cccc3[nH]ccc23)nc2c1ccn2S(=O)(=O)c1ccccc1,270,
C[C@@H]1COCCN1c1nc(-c2cccc3ccccc23)nc2c1ccn2S(C)(=O)=O,39.5,
C[C@@H]1COCCN1c1nc(-c2cccc3[nH]ccc23)nc2c1ccn2S(=O)(=O)c1ccc(-c2ccccc2)cc1,10200,
C[C@@H]1COCCN1c1nc(-c2ccnc3cccnc23)nc2c1ccn2S(C)(=O)=O,3690,
C[C@@H]1COCCN1c1cc(C2(S(C)(=O)=O)CC2)nc(-c2cccc3[nH]ccc23)n1,,Activity (Granta-519 [1]): 61.62%; IC50 (NCI-H446): 3900 nM; IC50 (HCT-116): 1470 nM; IC50 (CAPAN-1): 7050 nM; IC50 (Granta-519 [2]): 500 nM; Activity (Granta-519 [3]): 35.65%; IC50 (LoVo): 850 nM; Activity (Granta-519 [4]): 0.742%; viability at 2 µM (Granta-519 [5]): 80.6%; Activity (Granta-519 [6]): 9.46%; IC50 (SUD4): 2380 nM; Activity (Granta-519 [7]): 9.18%; IC50 (DLD-1): 3470 nM; IC50 (PC-3): 8430 nM; IC50 (A2780): 460 nM; IC50 (OCI-Ly10): 1030 nM; IC50 (HT-29): 2940 nM
C[C@@H]1COCCN1c1nc(-c2ccc3[nH]ccc3c2)nc2c1ccn2S(C)(=O)=O,53.1,
C[C@@H]1COCCN1c1nc(-c2cccc3[nH]ccc23)nc2c1ccn2S(=O)(=O)C1CCCCC1,205,

# Now from value to compound, other results behind:
IC50 (ATR/ATRIP) [nM],Compound,further results
4.3,CCS(=O)(=O)n1ccc2c(N3CCOC[C@H]3C)nc(-c3cccc4[nH]ccc34)nc21,
2.3,C[C@@H]1COCCN1c1nc(-c2cccc3[nH]ccc23)nc2c1ccn2S(C)(=O)=O,
3.8,C[C@@H]1COCCN1c1nc(-c2cccc3[nH]ccc23)nc2c1ccn2S(=O)(=O)C1CC1,
3.3,C[C@@H]1COCCN1c1cc(N(C2CC2)S(C)(=O)=O)nc(-c2cccc3[nH]ccc23)n1,
5.3,C[C@@H]1COCCN1c1nc(-c2cccc3[nH]ccc23)nc2c1ccn2S(=O)(=O)N(C)C,
9.4,C[C@@H]1COCCN1c1cc(C2CCCS2(=O)=O)nc(-c2cccc3[nH]ccc23)n1 (stereo partly drawn),
28,C[C@@H]1COCCN1c1nc(-c2cccc3sccc23)nc2c1ccn2S(C)(=O)=O,
5.3,COc1cc(-c2nc(N3CCOC[C@H]3C)c3ccn(S(C)(=O)=O)c3n2)c2cc[nH]c2c1,
7.8,CC(C)N(c1cc(N2CCOC[C@H]2C)nc(-c2cccc3[nH]ccc23)n1)S(C)(=O)=O,
4.4,C[C@@H]1COCCN1c1nc(-c2cc(Cl)cc3[nH]ccc23)nc2c1ccn2S(C)(=O)=O,
5.8,C[C@@H]1COCCN1c1nc(-c2cccc3[nH]ccc23)nc2c1cnn2S(C)(=O)=O,
9.4,C[C@@H]1COCCN1c1nc(-c2cc(C#N)cc3[nH]ccc23)nc2c1ccn2S(C)(=O)=O,
32.1,C[C@@H]1COCCN1c1nc(-c2cccc3[nH]ccc23)nc2c1CS(=O)(=O)C2,
9.2,C[C@@H]1COCCN1c1nc(-c2cc(C(F)(F)F)cc3[nH]ccc23)nc2c1ccn2S(C)(=O)=O,
7.8,C[C@@H]1COCCN1c1cc(C2CCCCS2(=O)=O)nc(-c2cccc3[nH]ccc23)n1 (stereo partly drawn),
8,CC(C)S(=O)(=O)n1ccc2c(N3CCOC[C@H]3C)nc(-c3cccc4[nH]ccc34)nc21,
